Results as given in PMC10208570, “Peptidomimetic antibiotics disrupt the lipopolysaccharide transport bridge of drug-resistant Enterobacteriaceae” (Science Advances, 2023).
Values after ≈ are worked out from the molar mass of the structure shown. Read-outs that look alike come from different tables or passages of the source. Where a SMILES comes first, the peptide text is derived from it. Bridges are numbered along the chain shown (N, C = ends). [ ]: non-standard residue; d: D form. The star is where a group is joined. Val(Nα-amidino) = CC(C)[C@H](NC(=N)N)C(=O)*; Hyp = O=C(O)[C@@H]1C[C@@H](O)CN1; Pen = CC(C)(S)[C@H](N)C(=O)O; dDab = NCC[C@@H](N)C(=O)O; Dab = NCC[C@H](N)C(=O)O

Columns and labels:
[1] = system: E. coli ATCC 25922 (parent / WT); assay: microbe, parasite or virus in culture; settings: for MIC E. coli ATCC 25922 Parent: CLSI method, parent strain
Method in brief: (§1)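 MICs were determined by CLSI methodology. Serial passage studies were also run, and resistant mutants isolated from them were re-tested for MIC and then characterised by whole-genome sequencing.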

[2] = system: K. pneumoniae NCTC 13443 (NDM-1) (parent / WT); assay: microbe, parasite or virus in culture; settings: for MIC K. pneumoniae NCTC 13443 (NDM-1) Parent: CLSI method, parent strain
Method in brief: as §1

[3] = system: K. pneumoniae NCTC 13443 (NDM-1) LptA Q62L mutant; assay: microbe, parasite or virus in culture; settings: for MIC K. pneumoniae NCTC 13443 (NDM-1) Q62L mutant: CLSI method, clone harboring LptA Q62L
Method in brief: as §1

[4] = system: E. coli ATCC 25922 LptA Q62L mutant; assay: microbe, parasite or virus in culture; settings: for MIC E. coli ATCC 25922 Q62L mutant: CLSI method, clone harboring LptA Q62L
Method in brief: as §1

[5] = system: K. pneumoniae ATCC 43816 (parent / WT); assay: microbe, parasite or virus in culture; settings: ATCC 43816
Method in brief: as §1

Plasma protein binding [6] = type: in vitro ADME, mouse; settings: mass balance method, ultrafiltration 30-kDa cutoff; pooled mouse plasma adjusted to pH 7.5; 10 mg/liter; 30 min at 37°C; biological replicates; read-out: Plasma protein binding (% bound) Mouse (converted)
Method: (§2) After ultrafiltration, protein binding was determined by subtracting the percentage of compound in ultrafiltrate from the total amount of compound in spiked plasma (table S4A).

Plasma protein binding [7] = type: in vitro ADME, human; settings: mass balance method, ultrafiltration 30-kDa cutoff; pooled human plasma adjusted to pH 7.5; 10 mg/liter; 30 min at 37°C; biological replicates; read-out: Plasma protein binding (% bound) Human (converted)
Method: as §2

in vitro = type: cell-based; settings: human
Method: The cytotoxicity of compounds was determined by determining the number of viable cells using the Sigma Cell Counting Kit-8 (WST-8). HeLa cells were incubated at 37°C and 5% CO2 for 24 hours, after which the medium was replaced with fresh medium containing dilutions of compounds. […]

LptAm = target: T1, LptAm (Escherichia coli, UniProt P0ADV1); assay: biochemical; type: binding, E. coli
T1 construct: His6-GB1 (N, cleaved yes); made in house; host or cells: E. coli BL21 (DE3)
Method: (§3) Protein stocks were purified and concentrated in buffer 1 [50 mM Na-Pi (pH 7) and 150 mM NaCl] and, if necessary, diluted to desired concentrations using buffer 2 [50 mM Na-Pi (pH 7), 150 mM NaCl, and 0.05% Tween 20]. Peptide stocks and fluorescently labeled peptide stocks were made in buffer 2. Every serial dilution consisted of 24 wells, the first well with the highest concentrate and the last well (well 24) with the lowest. First, 50 μl of buffer 2 was added to the wells 2 to 24 of each serial dilution. Then, 100 μl of concentrated unlabeled peptide/protein in their respective buffers was added to the first well. Fifty microliters were taken from the first well and added to the second well for a 1:1 serial dilution and continued for the 24 wells. […] Plates were covered with adhesive seals and left to incubate overnight at 4°C before FP measurements the next day. Anisotropy was measured using the Tecan Safire2 plate reader using a 10-nm bandwidth and setting the excitation and emission wavelengths to 635 and 670 nm, respectively. The G-factor (G) was also determined empirically as 1.094 for the instrument and included in all the anisotropy calculations.
(§4) For the indirect binding assays, r was calculated in the same manner as the direct binding assays. […] The control was subtracted from r to yield r′. Data were fit to a sigmoidal interpolation model on GraphPad Prism 9, and an IC50 was generated for each unlabeled peptide or protein measured.

LptAmQ62L = target: T2, LptAmQ62L (Escherichia coli, UniProt P0ADV1, Q62L); assay: biochemical; type: binding, E. coli
T2 construct: His6-GB1 (N, cleaved yes); made in house; host or cells: E. coli BL21 (DE3)
Method: as §3, §4

Providencia rettgeri = settings: CLSI microdilution method; LptA sequence identity 54
Method: (§5) MIC assays [Clinical and Laboratory Standards Institute (CLSI) methodology] and serial passage studies were performed as described by Luther et al. ([6]). […] Resistant mutants were isolated, and their MIC values were determined and sent to Microbes NG (Birmingham, United Kingdom) for whole-genome sequencing and bioinformatic analysis.

Proteus mirabilis = settings: CLSI microdilution method; LptA sequence identity 54
Method: as §5

Morganella morganii = settings: CLSI microdilution method; LptA sequence identity 57
Method: as §5

Pantoea agglomerans = settings: CLSI microdilution method; LptA sequence identity 69
Method: as §5

[8] = system: Stenotrophomonas maltophilia; settings: CLSI microdilution method; LptA sequence identity 25
Method: as §5

Enterobacter cloacae = settings: CLSI microdilution method; LptA sequence identity 86
Method: as §5

Citrobacter freundii = settings: CLSI microdilution method; LptA sequence identity 92
Method: as §5

Klebsiella oxytoca = settings: CLSI microdilution method; LptA sequence identity 100
Method: as §5

Serratia marcescens = settings: CLSI microdilution method; LptA sequence identity 64
Method: as §5

[9] = system: Salmonella enterica subsp. enterica; settings: CLSI microdilution method; LptA sequence identity 91
Method: as §5

Escherichia coli = settings: CLSI microdilution method; LptA sequence identity 100
Method: as §5

Raoultella planticola = settings: CLSI microdilution method; LptA sequence identity 84
Method: as §5

Enterobacter aerogenes = settings: CLSI microdilution method; LptA sequence identity 88
Method: as §5

Providencia stuartii = settings: CLSI microdilution method; LptA sequence identity 55
Method: as §5

Klebsiella pneumoniae = settings: CLSI microdilution method; LptA sequence identity 88
Method: as §5

Proteus vulgaris = settings: CLSI microdilution method; LptA sequence identity 55
Method: as §5

Shigella flexneri = settings: CLSI microdilution method; LptA sequence identity 100
Method: as §5

Moraxella catarrhalis = settings: CLSI microdilution method; LptA sequence identity 28
Method: as §5

Hafnia alvei = settings: CLSI microdilution method; LptA sequence identity 72
Method: as §5

T1 sequence (P0ADV1 28-159): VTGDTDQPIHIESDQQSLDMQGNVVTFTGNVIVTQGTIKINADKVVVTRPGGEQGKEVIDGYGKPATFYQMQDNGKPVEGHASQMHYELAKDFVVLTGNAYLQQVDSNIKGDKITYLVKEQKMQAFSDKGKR
T2 sequence (P0ADV1 28-159 Q62L): as the sequence (P0ADV1 28-159) above, with Q35L counted along it

SMILES	MIC E. coli ATCC 25922 Parent [1]	MIC K. pneumoniae NCTC 13443 (NDM-1) Parent [2]	MIC K. pneumoniae NCTC 13443 (NDM-1) Q62L mutant [3]	MIC E. coli ATCC 25922 Q62L mutant [4]	MIC K. pneumoniae ATCC 43816 Parent [5]	fraction unbound at 30 min, 10 mg/liter (Plasma protein binding [6])	fraction unbound at 30 min, 10 mg/liter (Plasma protein binding [7])	IC50 at 48 h (in vitro)	IC50 (LptAm)	Ki (LptAm)	IC50 (LptAmQ62L)	Ki (LptAmQ62L)	MIC Providencia rettgeri (Providencia rettgeri)	MIC Proteus mirabilis (Proteus mirabilis)	MIC Morganella morganii (Morganella morganii)	MIC Pantoea agglomerans (Pantoea agglomerans)	MIC Stenotrophomonas maltophilia [8]	MIC Enterobacter cloacae (Enterobacter cloacae)	MIC Citrobacter freundii (Citrobacter freundii)	MIC Klebsiella oxytoca (Klebsiella oxytoca)	other results
CC[C@H](C)[C@H](NC(=O)[C@@H]1C[C@@H](O)CN1C(=O)[C@@H](NC(=N)N)C(C)C)C(=O)N[C@H](C(=O)N[C@@H](Cc1ccc(O)cc1)C(=O)N[C@@H]1C(=O)N[C@@H](CC(N)=O)C(=O)N[C@@H](CCCNC(=N)N)C(=O)N[C@@H](CCN)C(=O)N[C@@H]([C@@H](C)O)C(=O)N[C@H](CCN)C(=O)N[C@@H](CCCCN)C(=O)N[C@H](C(=O)N[C@@H](CCN)C(=O)N[C@@H](CCCNC(=N)N)C(=O)N[C@@H](Cc2ccc(O)cc2)C(=O)O)CSSC1(C)C)[C@@H](C)O [Compound 7] ({Val(Nα-amidino)}-[Hyp]ITY[Pen]NR[Dab]T[dDab]KC[Dab]RY-OH; disulfide 5-12)	0.063 micrograms per milliliter	0.5 micrograms per milliliter	>8 micrograms per milliliter	4 micrograms per milliliter	0.125 micrograms per milliliter	0.06	0.19	456 µM	0.0117 ± 0.0005 µM	0.0019 ± 0.0001 µM	0.0254 ± 0.0046 µM	0.0172 ± 0.0031 µM	> 8 mg/L	> 8 mg/L	> 8 mg/L	> 8 mg/L	> 8 mg/L	0.5 mg/L (≈ 0.25 µM)	0.5 mg/L (≈ 0.25 µM)	0.5 mg/L (≈ 0.25 µM)	MIC Escherichia coli ATCC 25922 WT ([1]; Table S9 panel, WT): 0.125 mg/L (≈ 0.0625 µM); MIC Klebsiella pneumoniae NCTC 13443 WT ([2]; Table S9 panel, WT): 1 mg/L (≈ 0.5 µM); MIC Klebsiella pneumoniae NCTC 13443 LptA Q62L (5x) ([3]; Table S9 panel): > 16 mg/L; MIC Escherichia coli ATCC 25922 LptA Q62L (7x) ([4]; Table S9 panel): 2 mg/L (≈ 0.999 µM); MIC Klebsiella pneumoniae ATCC 43816 WT [5]: 0.25 mg/L (≈ 0.125 µM); MIC Serratia marcescens (Serratia marcescens): > 8 mg/L; MIC Salmonella enterica subsp. enterica [9]: 1 mg/L (≈ 0.5 µM); MIC Escherichia coli (Escherichia coli): 0.06 mg/L (≈ 0.03 µM); MIC Raoultella planticola (Raoultella planticola): 0.25 mg/L (≈ 0.125 µM); MIC Enterobacter aerogenes (Enterobacter aerogenes): 1 mg/L (≈ 0.5 µM); MIC Providencia stuartii (Providencia stuartii): > 8 mg/L; MIC Klebsiella pneumoniae (Klebsiella pneumoniae): 0.25 mg/L (≈ 0.125 µM); MIC Proteus vulgaris (Proteus vulgaris): > 8 mg/L; MIC Shigella flexneri (Shigella flexneri): 0.06 mg/L (≈ 0.03 µM); MIC Moraxella catarrhalis (Moraxella catarrhalis): > 8 mg/L; MIC Hafnia alvei (Hafnia alvei): 4 mg/L (≈ 2 µM)
CC[C@H](C)[C@H](NC(=O)[C@@H]1C[C@@H](O)CN1C(=O)[C@@H](N)C(C)C)C(=O)N[C@H](C(=O)N[C@@H](Cc1ccc(O)cc1)C(=O)N[C@@H]1C(=O)N[C@@H](CC(N)=O)C(=O)N[C@@H](CCCNC(=N)N)C(=O)N[C@@H](CCN)C(=O)N[C@@H]([C@@H](C)O)C(=O)N[C@H](CCN)C(=O)N[C@@H](CCCCN)C(=O)N[C@H](C(=O)N[C@@H](CCN)C(=O)N[C@@H](CCCNC(=N)N)C(=O)N[C@@H](Cc2ccc(O)cc2)C(=O)O)CSSC1(C)C)[C@@H](C)O [Compound 6] (H-V[Hyp]ITY[Pen]NR[Dab]T[dDab]KC[Dab]RY-OH; disulfide 6-13)	0.125 micrograms per milliliter	2 micrograms per milliliter	>8 micrograms per milliliter	2 micrograms per milliliter	0.25 micrograms per milliliter	0.11	0.38	1160 µM	0.0169 ± 0.001 µM	0.0028 ± 0.0002 µM	0.0146 ± 0.0025 µM	0.0099 ± 0.0017 µM	> 8 mg/L	> 8 mg/L	> 8 mg/L	4 mg/L (≈ 2.04 µM)	> 8 mg/L	0.13 mg/L (≈ 0.0663 µM)	0.13 mg/L (≈ 0.0663 µM)	0.25 mg/L (≈ 0.128 µM)	MIC Serratia marcescens (Serratia marcescens): > 8 mg/L; MIC Salmonella enterica subsp. enterica [9]: 0.5 mg/L (≈ 0.255 µM); MIC Escherichia coli (Escherichia coli): 0.03 mg/L (≈ 0.0153 µM); MIC Raoultella planticola (Raoultella planticola): 0.06 mg/L (≈ 0.0306 µM); MIC Enterobacter aerogenes (Enterobacter aerogenes): 0.5 mg/L (≈ 0.255 µM); MIC Providencia stuartii (Providencia stuartii): > 8 mg/L; MIC Klebsiella pneumoniae (Klebsiella pneumoniae): 0.13 mg/L (≈ 0.0663 µM); MIC Proteus vulgaris (Proteus vulgaris): > 8 mg/L; MIC Shigella flexneri (Shigella flexneri): 0.03 mg/L (≈ 0.0153 µM); MIC Moraxella catarrhalis (Moraxella catarrhalis): > 8 mg/L; MIC Hafnia alvei (Hafnia alvei): 2 mg/L (≈ 1.02 µM)
